Data: patent US4921865A, “Aminoacylates of glycerol acetal” (Societe de Conseils de Recherches et d'Applications …, priority 1987, dated 1990)

How the values were obtained:
[1] = tested on: platelets (PAF induced platelet aggregation); assay: inhibition of PAF-induced platelet aggregation in platelet rich plasma; assay type: cell-based, New Zealand rabbits; conditions: Oryctolagus cuniculus; rabbit platelet rich plasma, 2.5 nM PAF
Method: 1--INHIBITION OF THE PLATELETS AGGREGATION ON NEW ZEALAND RABBITS
The experimentation was conducted on platelets with plasma of New Zealand rabbits.
Blood samples were taken from auricular artery and placed in a citrate buffer (3.8 %; pH 7.4); blood was further centrifugated for 15 mn at 1200 RPM.
The tested sample was prepared in DMSO, then poured on platelets rich plasma for 1 mn, then a dose of 2.5 nM of PAF was added.
The determination is made on a Cronolog Coultronics apparatus which determines the transmission percentage corresponding to the maximum height of the peak before the desaggregation.
The percentage of variation of the inhibition with respect to the transmission percentage is calculated (control: pure DMSO).
This method was described in details in LABORATORY INVESTIGATIONS, Vol. 41, No. 3, p. 275, 1979, JEAN-PIERRE CAZENAVE, Dr. MED. , JACQUES BENVENISTE, Dr. MED., AND J. FRASER MUSTARD, M.D., "Aggregation of Rabbits Platelets by Platelet-Activating Factor Is Independent of the Release Reaction and the Arachidonate Pathway and Inhibited by Membrane-Active Drugs".
Five tests made on 5 different rabbits allowed us to calculate the IC50 of the various compounds using the linear regression test.

[2] = tested on: PAF-induced bronchoconstriction; assay: PAF-induced bronchoconstriction in the guinea pig; assay type: in vivo; conditions: for Percentage Variation (bronchoconstriction): vs control
Method: (§1) Male Guinea-pig (400-500 g) were anesthetized with urethane (1.5 g/kg: IP) prior to be tracheotomized and ventilated with a respiratory pump (UGO BASILE) (70-80 breath/minute, 1 ml air/100 g/breath) to abolish spontaneous respiration a pneumothorax was performed. The resistance to inflation was measured with a pressure transducer (UGO BASILE) against an initial pressure of 10 cm H2 O according to Konzett and Rossler. Animals were allocated into groups and were treated or not by the compounds of the invention (0.05, 0.1, 0.5, 1 and 5 mg/kg).The products were given IV 1 hour before challenge with PAF.
(§2) The animals were challenged with various doses of PAF ([…]) given intravenously, and the variations in the resistance to inflation were recorded.

PAF-induced leukopenia = PAF-induced leukopenia in the guinea pig; assay type: in vivo; conditions: for Percentage Variation (leukopenia): vs control
Method: as §1, §2
(§3) Blood samples were collected prior to and 1,5 and 10 minutes following to PAF-challenge. Forty μl of blood were diluted in 10 ml isoton (Coultronics, France); erythrocytes were lysed with Zapoglobin (France) prior leukocytes were counted in a coulter counter. To determine platelet number, 40 μl of blood were diluted in 2 ml isoton and centrifuged at 100 runs per minute for 30 secondes, 100 μl of the supernatant were collected and further diluted in 10 ml isoton prior counting in a coulter counter.

[3] = tested on: PAF-induced thrombocytopenia; assay: PAF-induced thrombocytopenia in the guinea pig; assay type: in vivo; conditions: for Percentage Variation (thrombocytopenia): vs control; for Percentage Decrease in leukocyte number: thrombocytopenia
Method: as §1, §2, §3

[4] = tested on: polymorphonuclear leukocytes (PMNs); assay: antagonism of polymorphonuclear leukocyte aggregation induced by PAF; assay type: cell-based, rat (Wistar); conditions: rat PMNs, PAF 10^-8
Method: Polymorphonuclear leukocytes (PMNs) were obtained as described by A. W. Ford-Hutchinson et al. (Br - J. Pharmacol. 76, 367-371, 1982). Cell suspensions ([…]) were prepared from peritoneal exudates obtained after a 5 ml IP injection of sodium caseinate 12% (w/v) to male Wistar rats, 300 g body weight.
After centrifugation, cells were washed with Hanks and resuspended in MEM/Hepes 30 mM medium (PM=7.4) at a concentration of 10^7 cells/ml. Cytochalasin B (5 μg/ml) was added 10 minutes before trigering aggregation to amplify the PMNs aggregation. The light transmittance through the cell suspension (400 μl) was measured under a 900 R/mn magnetic stirring, with a dual beam aggregometer (Chronolog Corp. Coultronics.)
The control cuvet is the cell suspension diluted to 20% of the cell count with MEM and the difference represents 100% transmittance. Change in transmittance, which occurs when PAF is added, was continuously recorded.
Drugs solubilized in MEM/Hepes were added (4 μl) to PMNs suspension 2 minutes before PAF addition.

[5] = pyridinium compound 0.5, 1 and 5 mg/kg IV, quinolinium compound 0.5 and 1 mg/kg IV

IC50 [1]: 303 nM
IC50 ([4]; Leukocyte): 1000 nM
SMILES: CCCCCCCCCCCCCCCCCC1(C)OCC(COC(=O)CCCCC[n+]2cccc3ccccc32)O1 (centres unmarked) [Example 10, 2-heptadecyl 2-methyl 4-[6'-(N-quinolinium)hexanoyloxymethyl) 1,3-dioxolanbromide]
Percentage Bronchoconstriction ([2]; 0.1 mg/kg IV): 80.4 +/- 13.78%
Percentage Variation (bronchoconstriction) ([2]; 0.1 mg/kg IV): -11.5%
Percentage Bronchoconstriction ([2]; 0.5 mg/kg IV): 25.1 +/- 6.53%
Percentage Variation (bronchoconstriction) ([2]; 0.5 mg/kg IV): -72.4%
Percentage Bronchoconstriction ([2]; 1 mg/kg IV): 8.1 +/- 2.91%
Percentage Variation (bronchoconstriction) ([2]; 1 mg/kg IV): -91.1%
inhibition of PAF-induced bronchoconstriction (in words) [2, 5]: inhibit
Percentage Decrease of leukocyte number (PAF-induced leukopenia; 0.1 mg/kg IV, 1 mn): 38.8 +/- 6.3%
Percentage Variation (leukopenia) (PAF-induced leukopenia; 0.1 mg/kg IV, 1 mn): +6.3%
Percentage Decrease of leukocyte number (PAF-induced leukopenia; 0.1 mg/kg IV, 5 mn): 38.9 +/- 5.7%
Percentage Variation (leukopenia) (PAF-induced leukopenia; 0.1 mg/kg IV, 5 mn): +35.5%
Percentage Decrease of leukocyte number (PAF-induced leukopenia; 0.1 mg/kg IV, 10 mn): 41.2 +/- 6.5%
Percentage Variation (leukopenia) (PAF-induced leukopenia; 0.1 mg/kg IV, 10 mn): +53.2%
Percentage Decrease of leukocyte number (PAF-induced leukopenia; 0.5 mg/kg IV, 1 mn): 17.0 +/- 12.9%
Percentage Variation (leukopenia) (PAF-induced leukopenia; 0.5 mg/kg IV, 1 mn): -58.9%
Percentage Decrease of leukocyte number (PAF-induced leukopenia; 0.5 mg/kg IV, 5 mn): 9.0 +/- 11.8%
Percentage Variation (leukopenia) (PAF-induced leukopenia; 0.5 mg/kg IV, 5 mn): -68.6%
Percentage Decrease of leukocyte number (PAF-induced leukopenia; 0.5 mg/kg IV, 10 mn): -7.6 +/- 17.5%
Percentage Variation (leukopenia) (PAF-induced leukopenia; 0.5 mg/kg IV, 10 mn): +128.3%
Percentage Decrease of leukocyte number (PAF-induced leukopenia; 1 mg/kg IV, 1 mn): 24.1 +/- 6.8%
Percentage Variation (leukopenia) (PAF-induced leukopenia; 1 mg/kg IV, 1 mn): -41.0%
Percentage Decrease of leukocyte number (PAF-induced leukopenia; 1 mg/kg IV, 5 mn): 9.3 +/- 9.4%
Percentage Variation (leukopenia) (PAF-induced leukopenia; 1 mg/kg IV, 5 mn): -67.6%
Percentage Decrease of leukocyte number (PAF-induced leukopenia; 1 mg/kg IV, 10 mn): 8.9 +/- 13.2%
Percentage Variation (leukopenia) (PAF-induced leukopenia; 1 mg/kg IV, 10 mn): -66.9%
Percentage Variation (thrombocytopenia) ([3]; 0.1 mg/kg IV, 1 mn): -21.7%
Percentage Variation (thrombocytopenia) ([3]; 0.1 mg/kg IV, 5 mn): 0%
Percentage Variation (thrombocytopenia) ([3]; 0.1 mg/kg IV, 10 mn): -7.2%
Percentage Variation (thrombocytopenia) ([3]; 0.5 mg/kg IV, 1 mn): -59.9%
Percentage Variation (thrombocytopenia) ([3]; 0.5 mg/kg IV, 5 mn): -39.3%
Percentage Variation (thrombocytopenia) ([3]; 0.5 mg/kg IV, 10 mn): -33.8%
Percentage Variation (thrombocytopenia) ([3]; 1 mg/kg IV, 1 mn): -58.3%
Percentage Variation (thrombocytopenia) ([3]; 1 mg/kg IV, 5 mn): -55.0%
Percentage Variation (thrombocytopenia) ([3]; 1 mg/kg IV, 10 mn): -60.0%
inhibition of PAF-induced thrombocytopenia (in words) [3, 5]: inhibit
Percentage Decrease in leukocyte number ([3]; 0.1 mg/kg IV, 1 mn): 51.1 +/- 12.1%
Percentage Decrease in leukocyte number ([3]; 0.1 mg/kg IV, 5 mn): 49.1 +/- 8.8%
Percentage Decrease in leukocyte number ([3]; 0.1 mg/kg IV, 10 mn): 45.0 +/- 9.7%
Percentage Decrease in leukocyte number ([3]; 0.5 mg/kg IV, 1 mn): 26.2 +/- 6.3%
Percentage Decrease in leukocyte number ([3]; 0.5 mg/kg IV, 5 mn): 29.8 +/- 1.7%
Percentage Decrease in leukocyte number ([3]; 0.5 mg/kg IV, 10 mn): 32.1 +/- 5.8%
Percentage Decrease in leukocyte number ([3]; 1 mg/kg IV, 1 mn): 19.3 +/- 1.4%
Percentage Decrease in leukocyte number ([3]; 1 mg/kg IV, 5 mn): 22.1 +/- 2.5%
Percentage Decrease in leukocyte number ([3]; 1 mg/kg IV, 10 mn): 19.4 +/- 3.6%
inhibition of PMN aggregation (in words) [4]: dose-dependently inhibit
